Structures can show the parent of a compound that is named as a salt.
System: maxillary dental arch
Assay: nasal deliverable anesthetizing composition applied to a patient's nasal cavity
Assay type: in vivo
Conditions: for absorption of the anesthetic with vasoconstrictor: compared to an anesthetic composition applied to nasal tissue not treated with a vasoconstrictor, HCl
From the text: As set forth above, the inventive nasal deliverable anesthetic compositions are delivered to the patient through the nasal cavity. This is done by applying the anesthetic composition to the lateral wall or membrane of the nasal cavity, where it can be absorbed into the nasal tissue, including nerves located within the nasal tissue. In the case where a delivery device having an extension tube is used, good results have been obtained by inserting approximately 15 mm of the tube into the patient's nasal cavity through the nostril. A nasal speculum may advantageously be used to assist in dilating the patient's nostril preparatory to inserting the extension tube so as to facilitate placement of the tube in a desired location within the patient's nasal cavity.
As discussed above with respect to FIG. 1, the nasal cavity includes a number of nerves that are responsible for transmitting pain and pressure impulses from the maxillary arch and palate to the brain. Most of these nerves collect at and below the maxillary nerve. Due to the location of the various nerves that collect at or below the maxillary nerve it may be possible to provide various degrees of anesthesia. Control of dosage volume, through control of the number of substance dispensing, can be utilized to determine the anatomical structures to be anesthetized. Minimal dosage volumes tend to yield anesthesia to at least a portion of the maxillary dentition, while greater anesthetic dosages yield anesthesia to the entire maxillary arch.
The tetracaine portion included an associated chlorobutanol preservative. The aqueous solution included sodium chloride in water.

Cc1cc(C(C)(C)C)c(O)c(C)c1CC1=NCCN1 [Oxymetazoline HCl]
anesthetic effect of the anesthetic with vasoconstrictor (compared to a lidocaine composition applied to nasal tissue not treated with a vasoconstrictor): enhanced the anesthetic effect of the lidocaine | absorption of the anesthetic with vasoconstrictor: enhanced the absorption of the tetracaine | absorption of the anesthetic with vasoconstrictor (listed as oxymetazoline HCl): enhanced the absorption of the benzocaine

Reference: US6413499B1, “Methods and kits for maxillary dental anesthesia by means of a nasal deliverable anesthetic” (priority 2000, dated 2002)
